test system: chloroform-induced ventricular fibrillation in the mouse; assay: Chloroform-induced ventricular fibrillation in the mouse; type: in vivo; conditions: 3 mg/kg i.p., 30 min before chloroform anesthesia; untreated control 100%
Excerpt: Chloroform-induced Ventricular Fibrillation in the Mouse (Action in the Case of Vagal Dysfunction)
Hypoactivity of the vagal nervous system leads to hyperactivity of the sympathetic nervous system. Damages to health that result from an inequilibrium of the autonomic nervous system when the dysfunction affects the heart include the weakening of the myocardial contractile force and fatal cardiac arrhythmias such as ventricular fibrillation. The action of the test compounds was investigated in the model of chloroform-induced ventricular fibrillation in the mouse (see J. W. Lawson, Antiarrhythmic activity of some isoquinoline derivatives determined by a rapid screening procedure in the mouse; J. Pharmacol. Exp. Ther. 160 (1968) 22).
The test compound was dissolved in a mixture of dimethyl sulfoxide (DMSO) and 10 percent sodium hydrogencarbonate solution and administered intraperitoneally (i.p.). The dose was 3 mg/kg. 30 min later, the mouse was anesthetized with chloroform in a beaker. As soon as respiratory arrest had occurred under deep anesthesia (toxic stage of anesthesia), the thorax of the animal was opened using a pair of scissors and the heartbeat was visually inspected. It can be determined here at a glance whether the heart is beating, fibrillating, or has stopped. […]

SMILES	Fibrillation ratio (in %) [%]
COc1ccc(CCNC(=O)C2=CCCCC2)cc1S(=O)(=O)NC(=S)NC(C)C [Example 20, 1-[5-(2-(1-Cyclohex-1-enecarboxamido)ethyl)-2-methoxyphenylsulfonyl]-3-isopropyl-thiourea]	70
COc1ccc(CCNC(=O)C2=CCCCC2)cc1S(=O)(=O)NC(=S)NC1CCCCC1 [Example 21, 1-[5-(2-(1-Cyclohex-1-enecarboxamido)ethyl)-2-methoxyphenylsulfonyl]-3-cyclohexyl-thiourea]	70

test system: papillary muscle of the guinea pig; assay: Action potential duration on the papillary muscle of the guinea pig (hypoxia-shortened APD90); conditions: 2 μM; 60 min after addition; relative to shortening caused by hypoxia
Excerpt: Action Potential Duration on the Papillary Muscle of the Guinea Pig
ATP deficiency states observed during ischemia in the cardiac muscle cell, lead to a shortening of the action potential duration (ATP=adenosine triphosphate). They are regarded as one of the causes of so-called reentry arrhythmias, which can cause sudden cardiac death. The opening of ATP-sensitive potassium channels by the lowering of the ATP level is regarded as the cause of this. For the measurement of the action potential on the papillary muscle of the guinea pig a standard microelectrode technique was employed.
Guinea pigs of both sexes were killed by a blow to the head, the hearts were removed, and the papillary muscles were separated out and suspended in an organ bath. The organ bath was rinsed with Ringer's solution (136 mmol/l of NaCl, 3.3 mmol/l of KCl, 2.5 mmol/l of CaCl2, 1.2 mmol/l of KH2PO4, 1.1 mmol/l of MgSO4, 5.0 mmol/l of glucose, 10.0 mmol/l of 1-(2-hydroxyethyl)piperazine4-(2-ethanesulfonic acid) (HEPES), pH adjusted to 7.4 with NaOH) and aerated with 100% oxygen at a temperature of 37° C. The muscle was stimulated with square-wave pulses of 1 V and 1 ms duration and a frequency of 1 Hz by means of an electrode. The action potential was derived and recorded by means of a glass microelectrode inserted intracellularly, which was filled with 3 mol/l of KCl solution. The compound to be tested was added to the Ringer's solution in a concentration of 2 μmol/l. The action potential was amplified using an amplifier from Hugo Sachs (March-Hugstetten, Germany) and stored and analyzed by means of a computer. The duration of the action potential was determined at a degree of repolarization of 90% (APD90). After an equilibration time of 30 min, the action potential shortening was produced by rinsing the papillary muscle with a hypoxic NaCl solution. The glucose was removed here, the HEPES buffer replaced by PIPES buffer (piperazine-1,4-bis(2-ethanesulfonic acid)), the pH was adjusted to 6.5 and the aeration was carried out using 100% nitrogen. After a time of 60 min, this led to a marked shortening of the APD90. After this time, the test compound was added and the relengthening of the action potential recorded after a further 60 min. The compound-caused relengthening of the APD90 was calculated as a percentage, in relation to the shortening caused by hypoxia. The test compounds were added to the bath solution as stock solution in propanediol.
The following relengthenings of the APD90 values were observed.

SMILES	Relengthening of the APD90 shortened by hypoxia [%]
CNC(=S)NS(=O)(=O)c1cc(CCNC(=O)c2cnc3ccccc3c2)ccc1OCCOC [Example 2, 1-[5-(2-(3-Quinolinecarboxamido)ethyl)-2-(2-methoxyethoxy)phonylsulfonyl]-3-methyl-thiourea]	42
CNC(=S)NS(=O)(=O)c1cc(CCNC(=O)c2cnc3ccccc3c2)ccc1OCCOCC(F)(F)F [Example 4, 1-[5-(2-(3-Quinolinecarboxamido)ethyl)-2-(2-(2,2,2-trifluoroethoxy)ethoxy)phenyl-sulfonyl]-3-methyl-thiourea]	69
CCCOc1ccc(CCNC(=O)c2cnc3ccccc3c2)cc1S(=O)(=O)NC(=S)NC [Example 8, 1-[5-(2-(3-Quinolinecarboxamido)ethyl)-2-propyloxyphenylsulfonyl]-3-methyl-thiourea]	35
CNC(=S)NS(=O)(=O)c1cc(CCNC(=O)C=C(C)C)ccc1OCCOC [Example 17, 1-[5-(2-(3-Methylbut-2-eneamido)ethyl)-2-(2-methoxyethoxy)phenylsulfonyl]-3-methyl-thiourea]	34

molecular target: hSUR1/hKir6.2 (Homo sapiens, UniProt Q09428+Q14654); assay: Action on hSUR1/hKir6.2-transfected CHO cells (membrane potential, DIBAC4 fluorescence, FLIPR); type: cell-based; conditions: 10 μM; CHO cells activated with diaxozide
Excerpt: Action on hSUR1/hKir6.2-transfected CHO Cells (Hypoglycemic Action)
The target organ of these compounds is the […] of the pancreas where they block ATP-sensitive potassium channels and produce a release of the hypoglycemic hormone insulin by influencing the electrical potential of the cell membrane.
The extent of this depolarization of the cell membrane, which is caused by the compounds according to the invention, was investigated on CHO cells that were transfected with the cloned components of human pancreatic ATP-sensitive potassium channels, hSUR1, and hKir6.2, and activated by pretreatment with diaxozide, an opener of ATP-sensitive potassium channels. The potency of a compound with respect to the membrane potential of these transfected and activated CHO cells is a measure of the hypoglycemic potential of this compound.
On the day of measurement, the microtiter plates were washed three times with PBS (physiological buffer solution). In the last washing step, 90 μl remained in each well. The cells were then loaded with the fluorescent dye DIBAC4 (Molecular Probes, Portland, Oreg., USA) by addition of 90 μl of a 10-micromolar solution of DIBAC4 in PBS and of 90 μl of a 400 micromolar solution of diaxozide in PBS to each well. After an incubation time of 30 min at 37° C., the microtiter plates were then transferred to a fluorescent microtiter plate reader (FLIPR; Molecular Devices, Sunnyvale, Calif., USA). The cells were stimulated by means of an argon laser (Innova 90; Coherent, Santa Clara, Calif., USA) at a wavelength of 488 nm and the fluorescence emission was measured by means of a CCD camera. The measurement of the membrane potential began after 4 min by addition of 20 μl of a solution of the test compound or of the control solution to each well, the resulting fluorescence emission being measured every 20 seconds for a period of 20 min. The data shown are mean values of at least 4 experiments.

hSUR1/hKir6.2, sequence (Q09428 whole entry): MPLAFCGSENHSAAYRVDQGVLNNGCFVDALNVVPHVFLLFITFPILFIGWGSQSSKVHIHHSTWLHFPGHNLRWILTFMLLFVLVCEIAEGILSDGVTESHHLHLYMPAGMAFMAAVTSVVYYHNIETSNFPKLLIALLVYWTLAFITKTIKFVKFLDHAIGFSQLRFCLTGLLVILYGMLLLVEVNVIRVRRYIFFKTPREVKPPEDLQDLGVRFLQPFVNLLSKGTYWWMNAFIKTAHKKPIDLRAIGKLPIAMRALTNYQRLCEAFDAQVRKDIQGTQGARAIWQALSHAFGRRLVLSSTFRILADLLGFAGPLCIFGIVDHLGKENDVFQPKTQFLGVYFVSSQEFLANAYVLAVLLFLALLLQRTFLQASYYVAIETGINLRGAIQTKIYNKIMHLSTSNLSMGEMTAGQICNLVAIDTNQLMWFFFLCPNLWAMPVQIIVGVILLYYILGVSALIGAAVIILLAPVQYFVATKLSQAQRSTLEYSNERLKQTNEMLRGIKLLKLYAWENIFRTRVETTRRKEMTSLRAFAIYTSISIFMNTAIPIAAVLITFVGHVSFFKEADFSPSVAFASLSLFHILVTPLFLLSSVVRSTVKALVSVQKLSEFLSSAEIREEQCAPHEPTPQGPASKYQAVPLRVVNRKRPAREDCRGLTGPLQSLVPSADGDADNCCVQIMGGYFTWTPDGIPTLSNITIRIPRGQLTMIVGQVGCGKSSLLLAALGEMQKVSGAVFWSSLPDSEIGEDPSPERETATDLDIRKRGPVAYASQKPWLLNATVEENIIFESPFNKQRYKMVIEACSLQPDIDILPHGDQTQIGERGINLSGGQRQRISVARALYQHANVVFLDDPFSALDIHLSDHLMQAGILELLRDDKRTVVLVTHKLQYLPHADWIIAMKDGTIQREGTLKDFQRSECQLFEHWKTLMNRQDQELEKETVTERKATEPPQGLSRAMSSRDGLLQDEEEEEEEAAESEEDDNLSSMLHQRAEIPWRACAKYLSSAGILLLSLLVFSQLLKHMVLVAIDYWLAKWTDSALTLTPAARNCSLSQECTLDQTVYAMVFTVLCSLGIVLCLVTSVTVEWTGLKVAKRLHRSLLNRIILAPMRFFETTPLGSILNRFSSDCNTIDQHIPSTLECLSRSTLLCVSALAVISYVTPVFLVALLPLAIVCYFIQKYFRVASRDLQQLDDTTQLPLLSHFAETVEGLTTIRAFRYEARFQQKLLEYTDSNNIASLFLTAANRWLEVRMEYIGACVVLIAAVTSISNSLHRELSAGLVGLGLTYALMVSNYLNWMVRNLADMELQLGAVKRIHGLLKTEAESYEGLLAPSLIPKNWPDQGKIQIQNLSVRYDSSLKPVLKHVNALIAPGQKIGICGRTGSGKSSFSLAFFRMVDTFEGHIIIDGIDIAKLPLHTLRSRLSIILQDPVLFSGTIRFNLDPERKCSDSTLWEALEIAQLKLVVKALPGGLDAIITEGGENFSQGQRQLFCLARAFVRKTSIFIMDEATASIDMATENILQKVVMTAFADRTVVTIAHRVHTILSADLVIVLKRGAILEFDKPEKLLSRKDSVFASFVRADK
hSUR1/hKir6.2, sequence (Q14654 whole entry): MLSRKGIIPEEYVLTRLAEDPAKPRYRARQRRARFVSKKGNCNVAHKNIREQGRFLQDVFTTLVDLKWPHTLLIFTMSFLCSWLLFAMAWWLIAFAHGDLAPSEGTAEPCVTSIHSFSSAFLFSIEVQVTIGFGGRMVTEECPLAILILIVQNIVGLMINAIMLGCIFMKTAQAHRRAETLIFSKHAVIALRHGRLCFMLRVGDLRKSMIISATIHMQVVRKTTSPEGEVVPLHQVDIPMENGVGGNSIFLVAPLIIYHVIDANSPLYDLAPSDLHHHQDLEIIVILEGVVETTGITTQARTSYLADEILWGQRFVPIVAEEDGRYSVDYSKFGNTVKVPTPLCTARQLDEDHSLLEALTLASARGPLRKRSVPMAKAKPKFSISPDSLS

SMILES	Blockade hSUR1/hKir6.2 [%]
CNC(=O)NS(=O)(=O)c1cc(CCNC(=O)c2cnc3ccccc3c2)ccc1OCCOC [Example 3, 1-[5-(2-(3-Quinolinecarboxamido)ethyl)-2-(2-methoxyethoxy)phenylsulfonyl]-3-methyl-urea]	0
COc1ccc(CCNC(=O)C2=CCCCC2)cc1S(=O)(=O)NC(=S)NC(C)C [Example 20, 1-[5-(2-(1-Cyclohex-1-enecarboxamido)ethyl)-2-methoxyphenylsulfonyl]-3-isopropyl-thiourea]	38.3

Results, then the compound that gave them:

Blockade hSUR1/hKir6.2 [%]	SMILES
6.1	CNC(=S)NS(=O)(=O)c1cc(CCNC(=O)c2cnc3ccccc3c2)ccc1OCCOC [Example 2, 1-[5-(2-(3-Quinolinecarboxamido)ethyl)-2-(2-methoxyethoxy)phonylsulfonyl]-3-methyl-thiourea]
69.8	CNC(=S)NS(=O)(=O)c1cc(CCNC(=O)c2cnc3ccccc3c2)ccc1OCCOCC(F)(F)F [Example 4, 1-[5-(2-(3-Quinolinecarboxamido)ethyl)-2-(2-(2,2,2-trifluoroethoxy)ethoxy)phenyl-sulfonyl]-3-methyl-thiourea]
67.5	CNC(=S)NS(=O)(=O)c1cc(CCNC(=O)c2cnc3ccccc3c2)ccc1OCCOc1ccccc1 [Example 11, 1-[5-(2-(3-Quinolinecarboxamido)ethyl)-2-(2-phenoxyethoxy)phenylsulfonyl]-3-methyl-thiourea]

test system: not given; assay: not given; conditions: not given

SMILES	melting point [°C]
CNC(=O)NS(=O)(=O)c1cc(CCNC(=O)c2cnc3ccccc3c2)ccc1OCCOCC(F)(F)F [Example 6, 1-[5(2-(3Quinolinecarboxamido)ethyl)-2-(2(2,2,2-trifluoroethoxy)ethoxy)phenyl-sulfonyl]-3-methyl-urea]	128
CCCOc1ccc(CCNC(=O)c2cnc3ccccc3c2)cc1S(=O)(=O)NC(=O)NC [Example 9]	120
CNC(=S)NS(=O)(=O)c1cc(CCNC(=O)C=C(C)C)ccc1OC [Example 15, 1-[5-(2-(3-Methylbut-2-eneamido)ethyl)-2-methoxyphenylsulfonyl]-3-methyl-thiourea]	153 to 154
CNC(=O)NS(=O)(=O)c1cc(CCNC(=O)C=C(C)C)ccc1OC [Example 16, 1-[5-(2-(3-Methylbut-2-eneamido)ethyl)-2-methoxyphenylsulfonyl]-3-methyl-urea]	199 to 203
CNC(=S)NS(=O)(=O)c1cc(CCNC(=O)C2=CCCCC2)ccc1OC [Example 18, 1-[5-(2-(1-Cyclohex-1-enecarboxamido)ethyl)-2-methoxyphenylsulfonyl]-3-methyl-thiourea]	179 to 182
CNC(=O)NS(=O)(=O)c1cc(CCNC(=O)C2=CCCCC2)ccc1OC [Example 19, 1-[5-(2-(1-Cyclohex-1-enecarboxamido)ethyl)-2-methoxyphenylsulfonyl]-3-methyl-urea]	175
CNC(=S)NS(=O)(=O)c1cc(CCNC(=O)C2=CCCCC2)ccc1OCCOC [Example 22, 1-[5-(2-(1-Cyclohex-1-enecarboxamido)ethyl)-2-(2-methoxyethoxy)phenylsulfonyl]-3-methyl-thiourea]	150 to 155

Continued, values first:

melting point [°C]	SMILES
85	CNC(=S)NS(=O)(=O)c1cc(CCNC(=O)c2cnc3ccccc3c2)ccc1OC [Example 1, 1-[5-(2-(3-Quinolinecarboxamido)ethyl)-2-methoxyphenylsulfonyl]-3-methyl-thiourea]
189 to 193	CCOc1ccc(CCNC(=O)c2cnc3ccccc3c2)cc1S(=O)(=O)NC(=S)NC [Example 7, 1-[5-(2-(3-Quinolinecarboxamido)ethyl)-2-ethoxyphenylsulfonyl]-3-methyl-thiourea]
50 to 52	CCOCCOc1ccc(CCNC(=O)c2cnc3ccccc3c2)cc1S(=O)(=O)NC(=S)NC [Example 10, 1-[5-(2-(3-Quinolinecarboxamido)ethyl)-2-(2-ethoxyethoxy)phenylsulfonyl]-3-methyl-thiourea]
110	CNC(=S)NS(=O)(=O)c1cc(CCNC(=O)c2cnc3ccccc3c2)ccc1OCCOc1ccccc1 [Example 11, 1-[5-(2-(3-Quinolinecarboxamido)ethyl)-2-(2-phenoxyethoxy)phenylsulfonyl]-3-methyl-thiourea]
124	CNC(=S)NS(=O)(=O)c1cc(CCNC(=O)c2cnc3ccccc3c2)ccc1OCCc1ccccc1 [Example 12, 1-[5-(2-(3-Quinolinecarboxamido)ethyl)-2-(2-phenylethoxy)phenylsulfonyl]-3-methyl-thiourea]
75	CNC(=S)NS(=O)(=O)c1cc(CCNC(=O)c2cnc3ccccc3c2)ccc1OCC(F)(F)F [Example 13, 1-[5-(2-(3-Quinolinecarboxamido)ethyl)-2-(2,2,2-trifluoroethoxy)phenylsulfonyl]-3-methyl-thiourea]
155 to 156	CNC(=S)NS(=O)(=O)c1cc(CCNC(=O)c2cnc3ccccc3c2)ccc1-c1ccco1 [Example 14, 1-[5-(2-(3-Quinolinecarboxamido)ethyl)-2-(2-furyl)phenylsulfonyl]-3-methyl-thiourea]
